Test results taken from patent US6315907A (priority 1997, dated 2001).

Tested on: TSST-1
Format: binding, Staphylococcus aureus

CCCCCCCCN [n-octylamine]
adsorption ability for TSST-1: enhanced to a great extent
